Assay results: patent US6949353B2, “Capping enzyme of flavivirus and utilization of this protein in a process to test drugs with antiviral properties” (priority 2001, dated 2005)

Tests used:
[1] = target: T1, CEF (Capping Enzyme of Flavivirus) (Dengue virus type 2, UniProt P14340); experiment: UV-crosslinking of α-32P-GTP (or α-32P-ATP) to CEF, direct binding; parameters: species or system Dengue virus type 2 (New Guinea)
T1 construct: is a thirty-three kDa N-terminal domain of the RNA-dependent RNA polymerase; made in house; host or cells: E. coli (vector pQE30)
Experimental: In the drawings, as noted above, FIGS. 1A and 1B are a pair of photographs of gel electrophoresis. […] 2 μg of CEF was incubated with 50 μM (1 μCi) of either α-^32P-GTP (lane 1, 2, 5, 6) or α-^32P-ATP (lanes 3, 4) in 50 mM Tris pH 7.6, 5 mM DTT in the presence (lane 1, 3-6)) or absence (lane 2) of 5 mM Mg^2+. The sample was cross-linked using UV irradiation (254 nm), boiled for 5 min, and subjected to denaturing gel electrophoresis. Products were analyzed and quantified using photostimulable plates and a FujiImager. Bacteriophage T4 DNA ligase served as a positive control (lane 5). The F25A variant of CEF was purified under the same conditions as those of wild-type CEF. Upper panels show the comassie-blue stained gels, and lower panels the corresponding autoradiographic analysis. […] The mixture was boiled for 5 min, subjected to denaturing gel electrophoresis, and the gel analyzed and quantified as in panel A. Upper panels show the comassie-blue stained gels, and lower panels the corresponding autoradiographic analysis. […]
The binding affinity constant of GTP to CEF can be easily determined using a fixed concentration of CEF and increasing concentrations of radiolabeled GTP as described in FIG. 1A. […]

[2] = target: T1, CEF (Capping Enzyme of Flavivirus); experiment: Competition with α-32P-GTP for covalent binding to CEF (no UV, gel electrophoresis/autoradiography); parameters: species or system Dengue virus type 2 (New Guinea); details: 0-1000 μM competitor, 10 min before α-32P-GTP, with magnesium
Experimental: In the drawings, as noted above, FIGS. 1A and 1B are a pair of photographs of gel electrophoresis. […] 2 μg of CEF was incubated with 50 μM (1 μCi) of either α-^32P-GTP (lane 1, 2, 5, 6) or α-^32P-ATP (lanes 3, 4) in 50 mM Tris pH 7.6, 5 mM DTT in the presence (lane 1, 3-6)) or absence (lane 2) of 5 mM Mg^2+. The sample was cross-linked using UV irradiation (254 nm), boiled for 5 min, and subjected to denaturing gel electrophoresis. Products were analyzed and quantified using photostimulable plates and a FujiImager. Bacteriophage T4 DNA ligase served as a positive control (lane 5). The F25A variant of CEF was purified under the same conditions as those of wild-type CEF. Upper panels show the comassie-blue stained gels, and lower panels the corresponding autoradiographic analysis. […] CEF was incubated during 10 min with increasing concentrations of Ribavirin 5′-triphosphate (0-50-250-500-750-1000 μM, lanes 1- to 6, respectively) before addition of α-^32P-GTP to the reaction mixture and further incubation for 20 min. The mixture was boiled for 5 min, subjected to denaturing gel electrophoresis, and the gel analyzed and quantified as in panel A. Upper panels show the comassie-blue stained gels, and lower panels the corresponding autoradiographic analysis. Ribavirin: Ribavirin 5′-triphosphate; Lig: Bacteriophage T4 DNA ligase. […]

[3] = target: T1, CEF (Capping Enzyme of Flavivirus); experiment: Competition with radiolabeled GTP for CEF, CEF-GTP complex assayed by UV-crosslinking; format: binding, Dengue virus type 2 (New Guinea)
Experimental: The invention can also be useful in methods for determining the inhibitory power of a biologically active compound acting as a competitive inhibitor of GTP comprising: • a) incubating CEF with radiolabeled GTP, • b) adding selected different concentrations of the biologically active compound, • c) assaying resulting radiolabeled CEF-GTP complex produced from the incubation, • d) quantifying an amount of radiolabeled CEF-GTP complex produced from the assay, • e) comparing the amount to a binding affinity constant of GTP to CEF, and • f) determining the inhibitory power of the biologically active compound.
More particularly, the incubating step in the methods of the invention is conducted at about 52 μM of GTP. Selected different concentrations of GTP are about 0 μM, about 10 μM, about 20 μM, about 50 μM, about 100 μM, about 200 μM, about 300 μM, about 500 μM, and about 800 μM. Assaying in the methods of the invention comprises UV-crosslinking of α-^32P-GTP to CEF.
The CEF-GTP complex is then assayed using UV-crosslinking as described above. If acyclovir 5′triphosphate competes with radiolabeled GTP for the CEF active-site, acyclovir 5′triphosphate will replace GTP in the active-site.

Nc1nc2c(ncn2[C@@H]2O[C@H](COP(=O)(O)OP(=O)(O)OP(=O)(O)O)[C@@H](O)[C@H]2O)c(=O)[nH]1 [GTP]
Kd ([1]; fixed CEF, increasing radiolabeled GTP, hyperbolic saturation, read-out: binding affinity constant Kd of GTP to CEF): 52 µM

NC(=O)c1ncn([C@@H]2O[C@H](COP(=O)(O)OP(=O)(O)OP(=O)(O)O)[C@@H](O)[C@H]2O)n1 [Ribavirin 5′-triphosphate]
effect on GTP-binding to CEF [2]: able to decrease GTP-binding to CEP

Nc1nc2c(ncn2COCCOP(=O)(O)OP(=O)(O)OP(=O)(O)O)c(=O)[nH]1 [acyclovir 5′-triphosphate]
Kd ([3]; CEF first incubated with about 52 μM GTP, increasing competitor, read-out: relative binding affinity constant for binding to CEF): ~79 µM
inhibition of the CEF enzyme (in words) ([3]; CEF-acyclovir 5′-triphosphate binding assay): good inhibitor of the CEF enzyme

Nc1ncnc2c1ncn2[C@@H]1O[C@H](COP(=O)(O)OP(=O)(O)OP(=O)(O)O)[C@@H](O)[C@H]1O [α-^32P-ATP]
labeling of CEF by radiolabeled nucleotide after UV irradiation ([1]; 50 μM nucleotide, 2 μg CEF, UV 254 nm): unable to label CEF significantly
